Test results from patent publication EP0433759A1, “4-Substituted alkyl carbapenem antibiotics” (Bristol-Myers Squibb Company, priority 1989, dated 1991).
In brackets after ≈: the same amount, converted by molar mass. Read-outs that look alike come from different tables or passages of the source.

Columns and labels:
[1] = Chemical stability in aqueous solution (half-life); assay type: physicochemical; conditions: 37°C, 10^-4 M, pH 7.4, aqueous solution; read-out: Half-life (T 1/2) (converted)
Experimental: These values were determined by the method of Woodward et al, J. Am. Chem. Soc., 102, 2042 (1980)

[2] = test system: Streptococcus pneumoniae, A9585; assay: In vitro antibacterial activity (MIC), serial 2-fold dilution; assay type: cell-based; conditions: read-out: Antibacterial Activity MIC S. pn.
Experimental: (§1) In vitro antibacterial activity was determined by serial 2-fold dilution of the compound in Mueller-Hinton agar and inoculation of the agar surface or broth with an appropriately diluted 18-24 h broth culture.

[3] = test system: Pseudomonas aeruginosa, A9843; assay: as above; assay type: cell-based; conditions: read-out: Antibacterial Activity MIC P. aer.
Experimental: as §1

Escherichia coli, A15119 = assay: as above; assay type: cell-based; conditions: read-out: Antibacterial Activity MIC E. coli
Experimental: as §1

[4] = Streptococcus pneumoniae A9585, Mueller-Hinton, 37°C, 17 h
[5] = Pseudomonas aeruginosa A9843, Mueller-Hinton, 37°C, 17 h
[6] = Escherichia coli A15119, Mueller-Hinton, 37°C, 17 h

Structure (SMILES)	half-life at 100 µM [1]	MIC [2, 4]	MIC [3, 5]	MIC (Escherichia coli, A15119; [6])	MIC ([2]; Streptococcus pneumoniae, A9585, 17 h)	MIC ([3]; Pseudomonas aeruginosa, A9843, 17 h)	MIC (Escherichia coli, A15119; Escherichia coli, A15119, 17 h)
C[C@@H](O)[C@H]1C(=O)N2C(C(=O)O)=C(SCc3ccccn3)[C@H](CCN)[C@H]12 [Example 3, (4R,5S,6S)-4-(2"-Aminoethyl)-6-[(1'R)-1'-hydroxyethyl]-3-[(pyridin-2-yl)methylthio]-7-oxo-1-azabicyclo-[3.2.0]-hept-2-ene-2-carboxylic acid]	3.2 h	0.13 µg/mL (≈ 0.358 µM)	2 µg/mL (≈ 5.5 µM)	0.016 µg/mL (≈ 0.044 µM)			
C[C@@H](O)[C@H]1C(=O)N2C(C(=O)O)=C(SCCC#N)[C@H](CCCCNC=N)[C@H]12 [Example 19, (4R,5S,6S)-3-[(2-Cyanoethyl)thio]-4-[4"-(N-formimidoyl)-amino-butyl]-6-[(1'R)-1'-hydroxyethyl]-7-oxo-1 - azabicyclo-[3.2.0]hept-2-ene-2-carboxylic acid]	117 h	0.06 µg/mL (≈ 0.158 µM)	1 µg/mL (≈ 2.63 µM)	0.004 µg/mL (≈ 0.0105 µM)			
C[C@@H](O)[C@H]1C(=O)N2C(C(=O)O)=C(SCc3cccnc3)[C@H](CCN)[C@H]12 [Example 24, (4R,5S,6S)-4-(2"-Aminoethyl)-6-[(1'R)-1'-hydroxyethyl]-3-[(pyridin-3-yl)methyithio]-7-oxo-1-azabicyclo[3.2.0]-hept-2-ene-2-carboxylic acid]	3.5 h	0.13 µg/mL (≈ 0.358 µM)	1 µg/mL (≈ 2.75 µM)	0.016 µg/mL (≈ 0.044 µM)			
C[C@@H](O)[C@H]1C(=O)N2C(C(=O)O)=C(SCCO)[C@H](CCCNC=N)[C@H]12 [Example 32, (4R,5S,6S)-4-[3"-[N-Formimidoyl)aminopropyl]-6-[(1'R)-1'-hydroxyethyl]-3-[(2-hydroxyethyl)thio]-7-oxo-1-azabicyclo [3.2.0]hept-2-ene-2-carboxylic acid]	76 h	0.25 µg/mL (≈ 0.699 µM)	0.25 µg/mL (≈ 0.699 µM)	0.004 µg/mL (≈ 0.0112 µM)			
C[C@@H](O)[C@H]1C(=O)N2C(C(=O)O)=C(SCCC#N)[C@H](CCN)[C@H]12 [Example 36, (4R,5S,6S)-4-(2"-Aminoethyl)-3-[(2-cyanoethyl)thio]-6-[(1'R)-1'-hydroxyethyl]-7-oxo-1-azabicyclo[3.2.0]hept-2-ene-2-carboxylic acid]	3.8 h	0.13 µg/mL (≈ 0.4 µM)	0.25 µg/mL (≈ 0.768 µM)	0.008 µg/mL (≈ 0.0246 µM)			
C[C@@H](O)[C@H]1C(=O)N2C(C(=O)O)=C(SCc3csnn3)[C@H](CCNC(=N)N)[C@H]12 [Example 40, (4R,5S.6S)-4-(2"-Guanidinoethyl)-6-[(1'R)-1'-hydroxyethyl]-3-[(1,2.3-thiadiazol-4-yl)methyithio]-7-oxo-1-azabicyclo-[3.2.0]hept-2-ene-2-carboxylic acid]	32.5 h	0.06 µg/mL (≈ 0.145 µM)	1 µg/mL (≈ 2.42 µM)	0.008 µg/mL (≈ 0.0194 µM)			
C[C@@H](O)[C@H]1C(=O)N2C(C(=O)O)=C(SCCC#N)[C@H](CCCN)[C@H]12 [Example 41, (4R-5S,6S)-4-(3"-Aminopropyl)-3-[(2-cyanoethy!)thio]-6-[(1'R)-1'-hydroxyethyl]-7-oxo-1-azabicyclo[3.2.0]hept-2-ene-2-carboxylic acid]	70 h	0.25 µg/mL (≈ 0.737 µM)	0.5 µg/mL (≈ 1.47 µM)	0.008 µg/mL (≈ 0.0236 µM)			
C[C@@H](O)[C@H]1C(=O)N2C(C(=O)O)=C(SCc3ccncc3)[C@H](CCCN)[C@H]12 [Example 44]	89 h	0.03 µg/mL (≈ 0.0795 µM)	8 µg/mL (≈ 21.2 µM)	0.03 µg/mL (≈ 0.0795 µM)			
C[C@@H](O)[C@H]1C(=O)N2C(C(=O)O)=C(SCCCC#N)[C@H](CCN)[C@H]12 [Example 47, (4R,5S,6S)-4-(2"-Aminoethyl)-3-[(3-cyanopropyl)thio]-6-[(1'R)-l'-hydroxyethyl]-7-oxo-1-azabicyclo[3.2.0]hept-2-ene-2-carboxylic acid]	2.5 h	0.5 µg/mL (≈ 1.47 µM)	1 µg/mL (≈ 2.95 µM)	0.03 µg/mL (≈ 0.0884 µM)			
C[C@@H](O)[C@H]1C(=O)N2C(C(=O)O)=C(SCCC#N)[C@H](CCN3CCOCC3)[C@H]12 [Example 49, (4R,5S,6S)-3-[(2-Cyanoethyl)thio]-6-[(1'R)-1'-hydroxyethyl]--4-[2"-(N-morpholino)ethyl]-7-oxo-1-azabicyclo-[3.2.0]hept-2-ene-2-carboxylic acid]	33.5 h	0.008 µg/mL (≈ 0.0202 µM)	63 µg/mL (≈ 159 µM)	0.03 µg/mL (≈ 0.0759 µM)			
C[C@@H](O)[C@H]1C(=O)N2C(C(=O)O)=C(SCCC#N)[C@H](CCN3CCCC3)[C@H]12 [Example 63, (4R,5S,6S)-3-[(2-cyanoethyl)thio]-6-[(1'R)-1'-hydroxyethyl]-4-[2"-(1-pyrrolidinyl)-ethyl]-7-oxo-1-azabicyclo[3.2.0]hept-2-ene-2-carboxylic acid]	18 h	0.008 µg/mL (≈ 0.0211 µM)	1 µg/mL (≈ 2.64 µM)	0.016 µg/mL (≈ 0.0422 µM)			
C[C@@H](O)[C@H]1C(=O)N2C(C(=O)O)=C(SCCC#N)[C@H](CCNC(=N)N)[C@H]12 [Example 73, (4R,5S,6S)-3-[(2-Cyanoethyl)thio]-4-(2"-guanidinoethyl)-6-[(1'R)-1'-hydroxyethyl]-7-oxo-1-azabicyclo[3.2.0]-hept-2-ene-2-carboxylic acid]	37 h	0.03 µg/mL (≈ 0.0816 µM)	0.25 µg/mL (≈ 0.68 µM)	0.008 µg/mL (≈ 0.0218 µM)			
C[C@@H](O)[C@H]1C(=O)N2C(C(=O)O)=C(SCCO)[C@H](CCCCN(C)C)[C@H]12 [Example 91, (4R,5S,6S)-4-(4"-N,N-Dimethylaminobutyl)-6-[(1'R)-1'-hydroxyethyl]-3-[(2-hydroxyethyl)thio]-7-oxo-1-azabicyclo-[3.2.0]hept-2-ene-2-carboxylic acid]	150 h	0.5 µg/mL (≈ 1.34 µM)	4 µg/mL (≈ 10.7 µM)	0.016 µg/mL (≈ 0.043 µM)			
CSC1=C(C(=O)O)N2C(=O)[C@H]([C@@H](C)O)[C@H]2[C@H]1CCCCN [Example 92, (4R,5S,6S)-4-(4"-Aminobutyl)-6-(1'R)-1'-hydroxyethyl-3-methylthio-7-oxo-1-azabicyclo[3.2.0]hept-2-ene-2-carboxylic acid]	247 h	2 µg/mL (≈ 6.36 µM)	2 µg/mL (≈ 6.36 µM)	0.06 µg/mL (≈ 0.191 µM)			
C[C@@H](O)[C@H]1C(=O)N2C(C(=O)O)=C(SCc3cn(C)nn3)[C@H](CCCNC=N)[C@H]12 [Example 94, (4R.5S,6S)-4-[3"-(N-Formimidoyi)aminopropyi]-6-[(1'R)-1'-hydroxyethyl]-3-[(1-methyl-1,2,3-triazol-4-yl)-methylthio]-7-oxo-1-azabicyclo[3.2.0]hept-ene-2-carboxylic acid]	88 h	0.06 µg/mL (≈ 0.147 µM)	8 µg/mL (≈ 19.6 µM)	0.008 µg/mL (≈ 0.0196 µM)			
C[C@@H](O)[C@H]1C(=O)N2C(C(=O)O)=C(SCCOC(N)=O)[C@H](CCCCNC(=N)N)[C@H]12 [Example 100, (4R.5S,6S)-3-[(2-Carbamoyloxyethyl)thio)-4-(4"-guanidinobutyl)-6-[(1'R)-1'-hydroxyethyl]-7-oxo-1-azabicyclo-[3.2.0]-hept-2-ene-2-carboxylic acid]	180 h	0.25 µg/mL (≈ 0.582 µM)	2 µg/mL (≈ 4.66 µM)	0.008 µg/mL (≈ 0.0186 µM)			
C[C@@H](O)[C@H]1C(=O)N2C(C(=O)O)=C(SCCN)[C@H](CCCN)[C@H]12 [Example 117, (4R,5S,6S)-4-(3"-Aminopropyl)-3-[(2-aminoethyl)thio]-6-[(1'R)-1'-hydroxyethyl]-7-oxo-1-azabicyclo[3.2.0]hept-2-ene-2-carboxylic acid, acetic acid_salt]	33 h	0.13 µg/mL	0.25 µg/mL	0.13 µg/mL			
C[C@H](N)C(=O)NCC[C@H]1C(SCCC#N)=C(C(=O)O)N2C(=O)[C@H]([C@@H](C)O)[C@@H]12 [Example 145, (4R,5S,6S)-6-[(\1'R)-1'-Hydroxyethyl]-3-[(2-cyanoethyl)-thio]-4-[2"-(L-alanyl)-aminoethyl]-7-oxo-1-azabicyclo-[3.2.0]hept-2-ene-2-carboxylic acid]		0.125 µg/mL (≈ 0.315 µM)	8 µg/mL (≈ 20.2 µM)	0.125 µg/mL (≈ 0.315 µM)			
C[C@H](N)C(=O)N[C@@H](C)C(=O)NCC[C@H]1C(SCCC#N)=C(C(=O)O)N2C(=O)[C@H]([C@@H](C)O)[C@@H]12 [Example 146, (4R,5S,6S)-6-[(1'R)-1'-Hydroxyethyl]-3-[(2-cyanoethyl)-thio]-4-[2"-(L-alanyl-L-alanyl)-aminoethyl]-7-oxo-1-azabicyclo-[3.2.0]hept-2-ene-2-carboxylic acid]		0.25 µg/mL (≈ 0.535 µM)	128 µg/mL (≈ 274 µM)	0.125 µg/mL (≈ 0.267 µM)			
C[C@@H](O)[C@H]1C(=O)N2C(C(=O)O)=C(SCCN=CN)C[C@H]12 [Imipenem, imipenem, reference compound]					0.002 µg/mL (≈ 0.00668 µM)	2 µg/mL (≈ 6.68 µM)	0.03 µg/mL (≈ 0.1 µM)
